Each structure is given as a SMILES string.

Two compounds from patent US20110038931A1, “COMPOSITE PREPARATION” (HANALL BIOPHARMA CO., LTD., priority 2008, published 2011) can be followed below.

One assay relates to SD rats. As to the kind of experiment: Bleeding time measurement in SD rats. Type of assay: in vivo, Rats (male). The conditions noted are these: 10 mg/kg p.o. once, light, 2 hours after administration. The method, then: (§1) Animal tests supporting the effects of the present invention were carried out as described in Table 8 below.
The test system of assay [1] is ADP-induced platelet aggregation. The assay can be described thus: Measurement of ADP-induced platelet aggregation in SD rats (PRP, aggregometer). Conditions: single drug 10 mg/kg, light. It counts as in vivo, Rats (male). The protocol:
as §1

Turning to `CC(=O)Oc1ccccc1C(=O)O` [Aspirin, acetylsalicylic acid], the Bleeding time with SD rats was found to be 930 ± 296 s. Further, the Platelet aggregation in assay [1] is reported as 83.5 ± 16.7%.

`COC(=O)[C@H](c1ccccc1Cl)N1CCc2sccc2C1` [Clopidogrel, methyl (+)-(S)-α-(o-chlorophenyl)-6,7-dihydrothieno[3,2-c]pyridine-5(4H)-acetate] returned a Bleeding time with SD rats of 1177 ± 729 s. This compound came in with a Platelet aggregation in assay [1] of 77.1 ± 20.9%.
